Values joined by “and” are separate entries in the source; they are usually repeats but may differ in a detail not shown here. Equal entries are not always repeated. Where two headings read alike, the source gives them in different places.
System: CDC1551(ΔdosR) mutant
Assay type: cell-based
Details: for Counts per million (CPM) / Counts per million (CPM) DosR_HC103A1 / Counts per million (CPM) DosR_HC103A2: DosR mutant treated with HC103A; for Counts per million (CPM): replicates 1, 2; for DosR DMSO/DosR HC103A Fold change / log2 Fold change: DosR mutant; for Counts per million (CPM) DosR_HC103A1: replicate 1; for Counts per million (CPM) DosR_HC103A2: replicate 2
[1] = gene MT0169 Rv0l60c PE, HC103A vs DMSO
[2] = gene MT0206 (Rv0196), HC103A compared to DMSO, upregulated
[3] = gene MT0207 (Rv0197), HC103A compared to DMSO, upregulated
[4] = gene MT0273 Rv0260c, HC103A vs DMSO
[5] = gene MT0585 (Rv0559c), HC103A compared to DMSO, upregulated
[6] = gene MT0586 (Rv0560c), HC103A compared to DMSO, upregulated
[7] = gene MT0587 (Rv0561c), HC103A compared to DMSO, upregulated
[8] = gene MT0808 (Rv0784), HC103A compared to DMSO, upregulated
[9] = gene MT0846 Rv0824c desA1, HC103A vs DMSO
[10] = gene MT0908 Rv0885, HC103A vs DMSO
[11] = gene MT0909 Rv0886 fprB, HC103A vs DMSO
[12] = gene MT1214 Rv1177 fdxC, HC103A vs DMSO
[13] = gene MT1297 (Rv1258c), HC103A compared to DMSO, upregulated
[14] = gene MT1430 Rv1386 PE, HC103A vs DMSO

## O=C(Nc1cccc(O)c1)c1cccc(NC(=O)c2cccs2)c1 [HC103A, N-[3-[(3 hydroxyphenyl)carbamoyl]phenyl]thiophene-2-carboxamide]
40 μM, 6 days, >2-fold, p<0.05
  downregulated genes in CDC1551(ΔdosR) mutant treated with compound: 13 genes
Gene MT0169 Rv0l60c PE
  Counts per million (CPM): 32.4 CPM and 38.89 CPM
[1]
  DosR DMSO/DosR HC103A Fold change: 0.4759
  log2 Fold change: −1.071
Gene MT0206 (Rv0196)
  Counts per million (CPM) DosR_HC103A1: 286.4 CPM
  Counts per million (CPM) DosR_HC103A2: 309 CPM
[2]
  DosR DMSO/DosR HC103A Fold change: 6.59
  log2 Fold change: 2.72
Gene MT0207 (Rv0197)
  Counts per million (CPM) DosR_HC103A1: 509.4 CPM
  Counts per million (CPM) DosR_HC103A2: 528.3 CPM
[3]
  DosR DMSO/DosR HC103A Fold change: 4.134
  log2 Fold change: 2.047
Gene MT0273 Rv0260c
  Counts per million (CPM): 19.06 CPM and 17.95 CPM
[4]
  DosR DMSO/DosR HC103A Fold change: 0.4609
  log2 Fold change: −1.117
Gene MT0585 (Rv0559c)
  Counts per million (CPM) DosR_HC103A1: 4,246.95 CPM
  Counts per million (CPM) DosR_HC103A2: 5,318.58 CPM
[5]
  DosR DMSO/DosR HC103A Fold change: 5.18
  log2 Fold change: 2.373
Gene MT0586 (Rv0560c)
  Counts per million (CPM) DosR_HC103A1: 8,065.19 CPM
[6]
  DosR DMSO/DosR HC103A Fold change: 384.9
  log2 Fold change: 8.588
Gene MT0587 (Rv0561c)
  Counts per million (CPM) DosR_HC103A1: 66.91 CPM
  Counts per million (CPM) DosR_HC103A2: 74.86 CPM
[7]
  DosR DMSO/DosR HC103A Fold change: 2.044
  log2 Fold change: 1.031
Gene MT0808 (Rv0784)
  Counts per million (CPM) DosR_HC103A1: 242.1 CPM
  Counts per million (CPM) DosR_HC103A2: 193.9 CPM
[8]
  DosR DMSO/DosR HC103A Fold change: 2.445
  log2 Fold change: 1.29
Gene MT0846 Rv0824c desA1
  Counts per million (CPM): 2,264.39 CPM and 5,375.06 CPM
[9]
  DosR DMSO/DosR HC103A Fold change: 0.4703
  log2 Fold change: −1.088
Gene MT0908 Rv0885
  Counts per million (CPM): 2,165.30 CPM and 1,401.92 CPM
[10]
  DosR DMSO/DosR HC103A Fold change: 0.3709
  log2 Fold change: −1.431
Gene MT0909 Rv0886 fprB
  Counts per million (CPM): 412.7 CPM and 231.2 CPM
[11]
  DosR DMSO/DosR HC103A Fold change: 0.453
  log2 Fold change: −1.142
Gene MT1214 Rv1177 fdxC
  Counts per million (CPM): 704.9 CPM and 1,378.70 CPM
[12]
  DosR DMSO/DosR HC103A Fold change: 0.4926
  log2 Fold change: −1.021
Gene MT1297 (Rv1258c)
  Counts per million (CPM) DosR_HC103A1: 106.4 CPM
  Counts per million (CPM) DosR_HC103A2: 137 CPM
[13]
  DosR DMSO/DosR HC103A Fold change: 2.269
  log2 Fold change: 1.182
Gene MT1430 Rv1386 PE
  Counts per million (CPM): 63.3 CPM and 54.49 CPM
[14]
  DosR DMSO/DosR HC103A Fold change: 0.4765
  log2 Fold change: −1.069

Reference: patent US11717508B2, “Compounds, compositions, and methods for inhibiting bacterial growth” (priority 2016, dated 2023)
